Measurements: PubChem BioAssay (NCI)
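Grown in 96-well plates, cells were treated for 48 hours with each compound at five concentrations. Insufficient inhibition: endpoint recorded as highest concentration tested. Definition used: TGI = concentration required for complete inhibition of growth.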

Key:
Assay in all cases: NCI-60 cell line screen, 48 h
786-0 renal = test system: 786-0 renal
A498 renal = test system: A498 renal
A549 NSCLC = test system: A549 NSCLC
ACHN renal = test system: ACHN renal
CAKI-1 renal = test system: CAKI-1 renal
CCRF-CEM leukemia = test system: CCRF-CEM leukemia
COLO 205 colon = test system: COLO 205 colon
DLD-1 colon = test system: DLD-1 colon
DMS 114 small cell lung = test system: DMS 114 small cell lung
DMS 273 small cell lung = test system: DMS 273 small cell lung
EKVX NSCLC = test system: EKVX NSCLC
HCC-2998 colon = test system: HCC-2998 colon
HCT-116 colon = test system: HCT-116 colon
HCT-15 colon = test system: HCT-15 colon
HL-60(TB) leukemia = test system: HL-60(TB) leukemia
HOP-62 NSCLC = test system: HOP-62 NSCLC
HOP-92 NSCLC = test system: HOP-92 NSCLC
HT29 colon = test system: HT29 colon
IGROV1 ovarian = test system: IGROV1 ovarian
K-562 leukemia = test system: K-562 leukemia
KM12 colon = test system: KM12 colon
KM20L2 colon = test system: KM20L2 colon
LOX IMVI melanoma = test system: LOX IMVI melanoma
LXFL 529 NSCLC = test system: LXFL 529 NSCLC
M14 melanoma = test system: M14 melanoma
M19-MEL melanoma = test system: M19-MEL melanoma
MALME-3M melanoma = test system: MALME-3M melanoma
NCI-H226 lung = test system: NCI-H226 lung
NCI-H23 lung = test system: NCI-H23 lung
NCI-H460 lung = test system: NCI-H460 lung
NCI-H522 lung = test system: NCI-H522 lung
OVCAR-3 ovarian = test system: OVCAR-3 ovarian
OVCAR-4 ovarian = test system: OVCAR-4 ovarian
OVCAR-5 ovarian = test system: OVCAR-5 ovarian
OVCAR-8 ovarian = test system: OVCAR-8 ovarian
RPMI-8226 leukemia = test system: RPMI-8226 leukemia
RXF 393 renal = test system: RXF 393 renal
SF-268 CNS = test system: SF-268 CNS
SF-295 CNS = test system: SF-295 CNS
SF-539 CNS = test system: SF-539 CNS
SK-MEL-2 melanoma = test system: SK-MEL-2 melanoma
SK-MEL-28 melanoma = test system: SK-MEL-28 melanoma
SK-MEL-5 melanoma = test system: SK-MEL-5 melanoma
SK-OV-3 ovarian = test system: SK-OV-3 ovarian
SN12C renal = test system: SN12C renal
SNB-19 CNS = test system: SNB-19 CNS
SNB-75 CNS = test system: SNB-75 CNS
SNB-78 CNS = test system: SNB-78 CNS
SW-620 colon = test system: SW-620 colon
TK-10 renal = test system: TK-10 renal
U251 CNS = test system: U251 CNS
UACC-257 melanoma = test system: UACC-257 melanoma
UACC-62 melanoma = test system: UACC-62 melanoma
UO-31 renal = test system: UO-31 renal
XF 498 CNS = test system: XF 498 CNS
HOP-18 NSCLC = test system: HOP-18 NSCLC
MOLT-4 leukemia = test system: MOLT-4 leukemia
SR leukemia = test system: SR leukemia

Measured: TGI

Cc1cccc(C)c1NC(=O)C(=O)Cc1nc2ccccc2s1
not listed: HOP-18 NSCLC | MOLT-4 leukemia | SR leukemia
> 100 µM: all other assays above

O=C1CC23CCCCCCCCCCC2(C1)CC(=O)C3 (stereo not drawn)
38.6 µM: SN12C renal
52.5 µM: DMS 273 small cell lung
45.4 µM: RPMI-8226 leukemia
32.4 µM: SK-MEL-5 melanoma
89.2 µM: RXF 393 renal
92.7 µM: HOP-18 NSCLC
51.8 µM: HOP-92 NSCLC
83 µM: IGROV1 ovarian
76.3 µM: SNB-19 CNS
56.2 µM: MOLT-4 leukemia
42.9 µM: SK-MEL-2 melanoma
45 µM: KM12 colon | NCI-H522 lung
61.2 µM: UO-31 renal
73.3 µM: K-562 leukemia
44.4 µM: CCRF-CEM leukemia | M14 melanoma
75.6 µM: U251 CNS
33.5 µM: COLO 205 colon
56.5 µM: SR leukemia
37.2 µM: HT29 colon
76.1 µM: MALME-3M melanoma
77.6 µM: DMS 114 small cell lung
49.2 µM: XF 498 CNS
48.4 µM: M19-MEL melanoma
65.2 µM: SK-OV-3 ovarian
41.5 µM: OVCAR-3 ovarian
39.2 µM: HL-60(TB) leukemia
72.1 µM: OVCAR-5 ovarian
not listed: A498 renal | CAKI-1 renal | HCT-116 colon | HOP-62 NSCLC | KM20L2 colon | LOX IMVI melanoma | OVCAR-4 ovarian | SNB-75 CNS | SNB-78 CNS | UACC-62 melanoma
> 100 µM: all other assays above
